Assays:
Assay in all cases: MIC of carbapenems with or without DMSA
K.p. OMA1 = type: cell-based, K. pneumoniae; conditions: K.p. OMA1, NDM-1 + TEM-1 +CTX-M-15+ SHV-28 + OXA-1 + OXA-9; no DMSA; unit assumed
Procedure: (§1) Minimum inhibitory concentrations (MICs) of carbapenems were determined in-vitro with strains (reference and clinical) producing the three main types of class B carbapenemases which are IMP, VIM and NDM, with or without EDTA and DMSA.
(§2) MICs of imipenem was determined for E. coli TOP10 pCR2.1-(PNDM-1-blaNDM-1-bleMBL) in the presence of 0, 0.01, 0.1 or 1 mg/ml of Ca-EDTA or DMSA by using the broth microdilution method in zinc-complemented M9CA minimum medium (SD7025, Euromedex, France).
(§3) A 100 mM DMSA stock solution (Sigma Aldrich, France) (pH 5.0) was prepared in 0.2 M NaOH as recommended (Maiorino et al. 1990) and pH was neutralized to pH 7.0 with NaHCO3 Na2Ca-EDTA (Sigma Aldrich, France) dissolved in water.
(§4) The strains were as follows: VIM producers (n=10), IMP producers (n=9), NDM-1 producers (n=10). The selected concentration of DMSA was 10-fold (0.3 mM) and 100-fold (3 mM) that of the human peak serum concentration after oral administration (Asiedu et al;, 1995), and that of Ca-EDTA was assayed at the fixed concentration of 0.2 mM (Table 2). […]

K.p. TAW = type: cell-based, K. pneumoniae; conditions: IMP-8 + SHV-5, no DMSA, unit assumed
Procedure: as §1, §2, §3, §4

K.p. KIE = type: cell-based, K. pneumoniae; conditions: NDM-1 + SHV-38 + CMY-16 + OXA-10, no DMSA, unit assumed
Procedure: as §1, §2, §3, §4

K.p. 6852 = type: cell-based, K. pneumoniae; conditions: K.p. 6852, IMP-1 + SHV-5; no DMSA; unit assumed
Procedure: as §1, §2, §3, §4

K.p. ROUM = type: cell-based, K. pneumoniae; conditions: VIM, no DMSA, unit assumed
Procedure: as §1, §2, §3, §4

K.p. 0709124 = type: cell-based, K. pneumoniae; conditions: K.p. 0709124, IMP-1b + TEM-15; no DMSA; unit assumed
Procedure: as §1, §2, §3, §4

E. coli FEK = type: cell-based; conditions: NDM-4 + NDM-4 + OXA-1 + CTX-M-15, no DMSA, unit assumed
Procedure: as §1, §2, §3, §4

E. cloacae KOW3 = type: cell-based; conditions: E. cloacae KOW3, VIM-1 + CTX-M-15+ TEM-1 + SHV-31; no DMSA; unit assumed
Procedure: as §1, §2, §3, §4

E. coli RIC = type: cell-based; conditions: NDM-1 + CMY-16 + OXA-1 + OXA-10, no DMSA, unit assumed
Procedure: as §1, §2, §3, §4

E. cloacae 1008183 = type: cell-based; conditions: E. cloacae 1008183, IMP-1; no DMSA; unit assumed
Procedure: as §1, §2, §3, §4

E. cloacae 1008085 = type: cell-based; conditions: E. cloacae 1008085, IMP-1; no DMSA; unit assumed
Procedure: as §1, §2, §3, §4

E. coli DIH = type: cell-based; conditions: VIM-19, no DMSA, unit assumed
Procedure: as §1, §2, §3, §4

E. cloacae TAW = type: cell-based; conditions: IMP-8, no DMSA, unit assumed
Procedure: as §1, §2, §3, §4

E. coli JAP = type: cell-based; conditions: IMP-1, no DMSA, unit assumed
Procedure: as §1, §2, §3, §4

E. coli IBIS = type: cell-based; conditions: VIM-4, no DMSA, unit assumed
Procedure: as §1, §2, §3, §4

E. coli 162 = type: cell-based; conditions: E. coli 162, NDM-5 + TEM-1 +CTX-M-15; no DMSA; unit assumed
Procedure: as §1, §2, §3, §4

C. freundii MIG = type: cell-based; conditions: VIM-2 + TEM-1 +OXA-9 + OXA-10, no DMSA, unit assumed
Procedure: as §1, §2, §3, §4

E. cloacae 1008029 = type: cell-based; conditions: E. cloacae 1008029, VIM-1 + CTX-M-3; no DMSA; unit assumed
Procedure: as §1, §2, §3, §4

E. coli COUP = type: cell-based; conditions: NDM-7 + OXA-1 +CTX-M-15, no DMSA, unit assumed
Procedure: as §1, §2, §3, §4

E. coli 1008077 = type: cell-based; conditions: E. coli 1008077, VIM-1 + TEM-3; no DMSA; unit assumed
Procedure: as §1, §2, §3, §4

E. coli 1108013 = type: cell-based; conditions: E. coli 1108013, IMP-1 + TEM-1; no DMSA; unit assumed
Procedure: as §1, §2, §3, §4

E. coli ALL = type: cell-based; conditions: NDM-1 + TEM-1 +CTX-M-15+OXA-1 + OXA-2, no DMSA, unit assumed
Procedure: as §1, §2, §3, §4

E. coli 0404018 = type: cell-based; conditions: E. coli 0404018, VIM-1 + CMY-6; no DMSA; unit assumed
Procedure: as §1, §2, §3, §4

E. coli IR5 = type: cell-based; conditions: E. coli IR5, NDM-1 + TEM-1 +CTX-M-15; no DMSA; unit assumed
Procedure: as §1, §2, §3, §4

E. coli 405 = type: cell-based; conditions: E. coli 405, NDM-5 + TEM-1 +CTX-M-15; no DMSA; unit assumed
Procedure: as §1, §2, §3, §4

E. cloacae 396715 = type: cell-based; conditions: E. cloacae 396715, VIM-1; no DMSA; unit assumed
Procedure: as §1, §2, §3, §4

E. coli BOUN = type: cell-based; conditions: NDM-4 + OXA-1, no DMSA, unit assumed
Procedure: as §1, §2, §3, §4

E. coli MAD = type: cell-based; conditions: VIM-1 + CTX-M-3, no DMSA, unit assumed
Procedure: as §1, §2, §3, §4

E. cloacae 1008186 = type: cell-based; conditions: E. cloacae 1008186, IMP-1; no DMSA; unit assumed
Procedure: as §1, §2, §3, §4

Work on `C[C@@H](O)[C@H]1C(=O)N2C(C(=O)O)=C(S[C@@H]3CN[C@H](C(=O)Nc4cccc(C(=O)O)c4)C3)[C@H](C)[C@H]12` [ETP, ertapenem] yielded an MIC (K.p. OMA1) greater than 32 µg/mL, an MIC (K.p. TAW) of 0.5 µg/mL and an MIC (K.p. KIE) of 4 µg/mL. For the same compound, the MIC (K.p. 6852) was greater than 32 µg/mL, the MIC (K.p. ROUM) was greater than 32 µg/mL and the MIC (K.p. 0709124) was 32 µg/mL. It also gave an MIC (E. coli FEK) greater than 32 µg/mL, an MIC (E. cloacae KOW3) greater than 32 µg/mL and an MIC (E. coli RIC) of 8 µg/mL. It also gave an MIC (E. cloacae 1008183) of 8 µg/mL, an MIC (E. cloacae 1008085) of 8 µg/mL and an MIC (E. coli DIH) of 8 µg/mL. The MIC (E. cloacae TAW) was 4 µg/mL, the MIC (E. coli JAP) was 0.5 µg/mL and the MIC (E. coli IBIS) was 2 µg/mL. It also gave an MIC (E. coli 162) greater than 32 µg/mL, an MIC (C. freundii MIG) of 2 µg/mL and an MIC (E. cloacae 1008029) greater than 32 µg/mL. For the same compound, the MIC (E. coli COUP) was 32 µg/mL, the MIC (E. coli 1008077) was greater than 32 µg/mL and the MIC (E. coli 1108013) was 32 µg/mL. For the same compound, the MIC (E. coli ALL) was 16 µg/mL, the MIC (E. coli 0404018) was 4 µg/mL and the MIC (E. coli IR5) was 32 µg/mL. For the same compound, the MIC (E. coli 405) was greater than 32 µg/mL, the MIC (E. cloacae 396715) was 2 µg/mL and the MIC (E. coli BOUN) was 16 µg/mL. It also gave an MIC (E. coli MAD) of 0.25 µg/mL and an MIC (E. cloacae 1008186) of 32 µg/mL.

From patent EP2979694B1, “Dimercaptosuccinic acid for the treatment of multidrug resistant bacterial infections” (priority 2014, dated 2016)
